According to patent US20240238361A1, “METHODS OF TREATING FIBROSIS AND HYPOXIA-ASSOCIATED DAMAGE TO PERIPHERAL NERVES” (Temple Therapeutics BV, priority 2021, published 2024):
“Also recorded” adds a separate entry of the source. Where a SMILES comes first, the peptide text is derived from it.

Key:
[1] = room temperature; cited from earlier work
[2] = test system: hypoxic primary rat fibroblasts; experiment: Alamar Blue viability / proliferation assay under hypoxia; format: cell-based; settings: for cell proliferation vs untreated controls: various concentrations
Description: In order to mimic the hypoxic micro-environment, primary rat fibroblasts were exposed to hypoxia. Cells were exposed to 2 separate conditions—continuous and episodic hypoxia. For continuous hypoxia, cells were incubated in a hypoxic chamber (2% 02) for 48 h and treated with or without L-alanyl-L-glutamine and no restoration to normoxia as shown in FIG. 1C. Cells were collected and processed for experiments subsequently. For episodic hypoxia, cells were incubated in a hypoxic chamber (2% 02) for 2 h followed by restoration to normoxia for 48 h at which time cells were treated with or without L-alanyl-L-glutamine, as shown by FIG. 1C. Cells were collected after 48 h and processed for experiments subsequently. Proliferation of primary fibroblasts were determined by alamar blue assay (Invitrogen). Briefly, cells were plated in a 96-well plate treated with or without L-alanyl-L-glutamine under aforementioned hypoxic conditions for 48 h. The interaction of alamar blue with the cells was analyzed for 4 h by measuring fluorescence readings at 540 nm and 585 nm respectively. Proliferation was also detected using flow cytometry based EdU assay using EdU-Click 488 (baseclick).

[3] = test system: hypoxic primary rat fibroblasts; experiment: Immunofluorescence of HIF1-α signaling and pro-fibrotic proteins; format: cell-based
Description: (§1) In order to mimic the hypoxic micro-environment, primary rat fibroblasts were exposed to hypoxia. Cells were exposed to 2 separate conditions—continuous and episodic hypoxia. For continuous hypoxia, cells were incubated in a hypoxic chamber (2% 02) for 48 h and treated with or without L-alanyl-L-glutamine and no restoration to normoxia as shown in FIG. 1C. Cells were collected and processed for experiments subsequently.
For episodic hypoxia, cells were incubated in a hypoxic chamber (2% 02) for 2 h followed by restoration to normoxia for 48 h at which time cells were treated with or without L-alanyl-L-glutamine, as shown by FIG. 1C. Cells were collected after 48 h and processed for experiments subsequently.
For immunofluorescence microscopy, cells were grown on 4-well chamber slides (IBIDI) under appropriate hypoxic conditions with or without L-alanyl-L-glutamine treatment. Cells were washed with ice-cold PBS followed by fixation with 4% paraformaldehyde. Fixed cells were permeabilized with 0.5% Triton X-100 and incubated with blocking reagent (1% BSA in PBS) for 30 minutes, prior to overnight incubation with appropriate primary antibodies. After wash steps, cultures were labeled and incubated with secondary antibodies and 4′-6-didiamino-2-phenylindole, dihydrochloride (DAPI, Sigma) were used to stain the nuclei.
Fluorescence microscopy image analysis was performed using NIKON Ti2 inverted microscope equipped with Photometrics Prime 95B camera for fluorescence imaging. All images were digitally processed, all quantifications and further arrangement for presentation was done using NIS-Elements Advanced Research analysis software. For quantification analysis, pictures from random fields in independent wells were taken at 10× and 40× magnification objectives and the total protein expression for each marker was determined in reference to the total number of cells based on DAPI quantification.
For immunofluorescence, the primary antibodies along with their respective concentrations are listed below. Anti-collagen I (1:500; ab34710), anti-collagen IV (1:500; ab6586) and anti-α-SMA (1:500; ab124964) were purchased from Abcam. Anti-HSP-47 (1:250; sc-13150), anti-fibronectin (1:250; sc-8422), and anti-HIF-1α (1:500; sc-13515) were ordered from Santa Cruz Biotechnology. Anti-SMAD 2/3 (1:500; 85865S) was purchased from Cell Signaling Technology. In addition to this, the following secondary antibodies: Goat anti-mouse Alexa Fluor (AF) 488 (A11029), goat anti-mouse AF546 (A11030), goat anti-rabbit AF488 (A11034) and goat anti-rabbit AF546 (A11010) from Life Technologies. DAPI (D9564) from Sigma was used at a concentration of 1:1000.

[4] = test system: hypoxic primary rat fibroblasts; experiment: Western blotting of whole cell lysates for HIF1-α signaling and pro-fibrotic proteins; format: cell-based
Description: In order to mimic the hypoxic micro-environment, primary rat fibroblasts were exposed to hypoxia. Cells were exposed to 2 separate conditions—continuous and episodic hypoxia. For continuous hypoxia, cells were incubated in a hypoxic chamber (2% 02) for 48 h and treated with or without L-alanyl-L-glutamine and no restoration to normoxia as shown in FIG. 1C. Cells were collected and processed for experiments subsequently. For episodic hypoxia, cells were incubated in a hypoxic chamber (2% 02) for 2 h followed by restoration to normoxia for 48 h at which time cells were treated with or without L-alanyl-L-glutamine, as shown by FIG. 1C. Cells were collected after 48 h and processed for experiments subsequently. Protein samples were prepared by resuspending cells growing in 6-well plates in RIPA lysis and extraction buffer (Thermo) containing protease and phosphatase inhibitors (Roche). Protein concentrations were quantified using protein assay dye reagent (Bio-Rad). Samples were mixed with 4× LDS Sample buffer (Thermo) and denatured by boiling at 95° C. for 6 minutes. Following protein concentration estimations, equal protein samples containing 25 μg total protein were loaded and resolved in 4-15% Mini protean TGX gels (Bio-Rad). Fractionated proteins were transferred to 0.2 μm nitrocellulose membranes using Trans-Blot® Turbo™ Transfer System (Bio-Rad). Membranes were blocked with 5% Non-Fat dry milk and incubated overnight with primary antibodies. The following primary antibodies along with their respective concentrations were used during overnight incubation. Anti-collagen I (1:500; ab34710) and anti-collagen IV (1:500; ab6586) were purchased from Abcam. Anti-heat shock protein 47 (HSP-47) (1:400; sc-13150) and anti-fibronectin (1:500; sc-8422) were ordered from Santa Cruz Biotechnology. Other antibodies including anti-SMAD 2/3 (1:500; 85865S), anti-GAPDH (1:5000; 97166S) and anti-HIF-1α (1:750; 14179S) were from Cell Signaling Technology. Horseradish peroxidase-conjugated secondary antibodies at a concentration of 1:5000 were used for immunoreactivity and detection of protein bands were does using Pierce™ ECL Plus Western Blotting Substrate (Thermo) and on the ChemiDoc Imaging Systems (Bio-Rad).

[5] = test system: hypoxic primary rat fibroblasts; experiment: Phosphoproteomics (LC-MS/MS) and pathway analysis under chronic hypoxia; format: cell-based; settings: vs untreated chronic hypoxic samples
Description: as §1
Following fibroblast isolation from sciatic nerves of rats, (8E10 primary fibroblasts) were lysed in 80 ul of 8M Urea, 0.1M ammonium bicarbonate, phosphatase inhibitors (Sigma P5726&P0044) by sonication (Bioruptor, 10 cycles, 30 seconds on/off, Diagenode, Belgium) and proteins were digested as described previously (PMID:27345528). Shortly, proteins were reduced with 5 mM TCEP for 60 min at 37° C. and alkylated with 10 mM chloroacetamide for 30 min at 37° C. After diluting samples with 100 mM ammonium bicarbonate buffer to a final urea concentration of 1.6M, proteins were digested by incubation with sequencing-grade modified trypsin (1/50, w/w; Promega, Madison, Wisconsin) for 12 h at 37° C. After acidification using 5% TFA, peptides were desalted using C18 reverse-phase spin columns (Macrospin, Harvard Apparatus) according to the manufacturer's instructions, dried under vacuum and stored at −20° C. until further use. […]

[6] = continuous hypoxia 48 h, various concentrations
[7] = episodic hypoxia 2 h, then treatment 48 h
[8] = continuous hypoxia 48 h, 1 mM, 10 mM and 100 mM, dose-dependent

NC(=O)CC[C@H](N)C(=O)O [L-glutamine]
water solubility [1]: about 40 g/L

C[C@H](N)C(=O)N[C@@H](CCC(N)=O)C(=O)O [L-alanyl-L-glutamine] (H-Ala-Gln-OH)
viability and cell proliferation ([2]; Alamar Blue, 48 h, hypoxic, 1 mM, 10 mM and 100 mM): does not affect the viability and cell proliferation
cell proliferation vs untreated controls ([2]; continuous (48 h) hypoxia): no change in cell proliferation
cell proliferation vs untreated controls ([2]; episodic (2 h) hypoxia): no change in cell proliferation
Collagen-I expression (immunofluorescence) [3, 6]: significantly reduced in a non-dose dependent manner
Collagen-IV expression (immunofluorescence) [3, 6]: dose-dependent downregulation
Fibronectin expression (immunofluorescence) [3, 6]: significantly reduced in a non-dose dependent manner
HIF1-α expression (immunofluorescence) [3, 6]: significant reduction; also recorded: dose-dependent downregulation
HSP47 expression (immunofluorescence) [3, 6]: dose-dependent downregulation
SMAD 2/3 expression (immunofluorescence) [3, 6]: significant reduction; also recorded: dose-dependent downregulation
Collagen-I expression (immunofluorescence) [3, 7]: significantly reduced at 1 mM L-alanyl-L-glutamine, but remained constant thereafter
Collagen-IV expression (immunofluorescence) [3, 7]: effectively reduces expression
Fibronectin expression (immunofluorescence) [3, 7]: effectively reduces expression
HIF1-α expression (immunofluorescence) [3, 7]: significant downregulation
HSP47 expression (immunofluorescence) [3, 7]: effectively reduces expression
SMAD 2/3 expression (immunofluorescence) [3, 7]: significant downregulation
HSP47 expression (western blot) ([4]; continuous hypoxia 48 h): reduces expression of HSP47 but we did not observe a significant downregulation
HIF1-α expression (western blot) ([4]; continuous hypoxia 48 h, 1 mM, 10 mM and 100 mM): significantly down regulated
Collagen-I expression (western blot) [4, 8]: significantly reduced
Collagen-IV expression (western blot) [4, 8]: significantly reduced
Fibronectin expression (western blot) [4, 8]: significantly reduced
SMAD 2/3 expression (western blot) ([4]; continuous hypoxia 48 h, 100 mM only): significantly downregulated
COL-IV expression (western blot) ([4]; episodic hypoxia, 1 mM): significant downregulation
HIF1-α signaling factors and pro-fibrosis mechanistic targets (western blot) ([4]; episodic hypoxia, across the various concentrations): not any significant downregulation
pro-fibrotic factors Fndel, Fndc3b, Col1a1, Akt1s1 and Pxn (phosphoproteome) [5]: significantly downregulated
